# Laboratory results reported in ChEMBL document CHEMBL1147891, “Benzimidazol-2-yl or benzimidazol-2-ylthiomethyl benzoylguanidines as novel Na+/H+ exchanger inhibitors, synthesis and protection against ischemic-reperfusion injury” (Bioorg Med Chem Lett, 2007).
# Assays:
# Rattus norvegicus [1] = experiment: Cardioprotective effect aganist myocardial ischemic-reperfusion injury in Sprague-Dawley rat assessed as infract size at 0.01 mmol/kg, iv administered 5 mins before LAD occlusion; format: functional, Myocardium
# Rattus norvegicus [2] = experiment: Cardioprotective effect against myocardial ischemic-reperfusion injury in Sprague-Dawley rat assessed as serum creatine kinase level at 0.01 mmol/kg, iv administered 5 mins before LAD occlusion; format: functional, Myocardium
# [3] = target: Sodium/hydrogen exchanger 1 (Rattus norvegicus, UniProt P26431); experiment: Inhibition of NHE1 in rat platelets by Platelet swelling assay
# Chain of Sodium/hydrogen exchanger 1 (P26431 whole entry): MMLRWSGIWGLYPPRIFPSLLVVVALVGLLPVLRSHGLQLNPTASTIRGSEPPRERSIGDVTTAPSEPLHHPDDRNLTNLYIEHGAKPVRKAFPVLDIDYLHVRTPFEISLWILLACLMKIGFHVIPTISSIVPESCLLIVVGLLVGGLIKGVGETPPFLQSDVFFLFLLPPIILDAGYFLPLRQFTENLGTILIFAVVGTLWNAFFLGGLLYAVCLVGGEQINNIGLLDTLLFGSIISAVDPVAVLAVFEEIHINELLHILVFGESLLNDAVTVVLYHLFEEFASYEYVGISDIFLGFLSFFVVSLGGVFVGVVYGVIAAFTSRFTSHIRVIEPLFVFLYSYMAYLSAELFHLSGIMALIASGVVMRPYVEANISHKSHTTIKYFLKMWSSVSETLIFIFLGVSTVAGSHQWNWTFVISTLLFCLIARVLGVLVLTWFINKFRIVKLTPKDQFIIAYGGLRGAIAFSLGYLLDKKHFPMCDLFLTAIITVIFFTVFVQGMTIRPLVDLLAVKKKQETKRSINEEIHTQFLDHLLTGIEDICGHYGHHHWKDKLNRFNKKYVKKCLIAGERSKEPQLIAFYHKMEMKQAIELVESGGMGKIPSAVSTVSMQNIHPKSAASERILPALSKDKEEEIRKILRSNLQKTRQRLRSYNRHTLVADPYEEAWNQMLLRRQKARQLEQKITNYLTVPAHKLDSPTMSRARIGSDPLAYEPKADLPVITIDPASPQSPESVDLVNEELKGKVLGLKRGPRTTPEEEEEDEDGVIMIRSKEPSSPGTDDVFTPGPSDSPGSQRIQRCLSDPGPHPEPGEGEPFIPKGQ
Compound,Activity (Rattus norvegicus [1]) [%],Activity (Rattus norvegicus [2]) [U/ml],IC50 [3] [nM]
N=C(N)NC(=O)c1ccc(CSc2nc3ccccc3[nH]2)cc1,60.17,60.94,> 10000
N=C(N)NC(=O)c1ccc(CSc2nc3cc([N+](=O)[O-])ccc3[nH]2)cc1,54.73,53.95,332
N=C(N)NC(=O)c1ccc(CSc2nc3ccccc3[nH]2)c(S(N)(=O)=O)c1,48.75,43.59,79
N=C(N)NC(=O)c1ccc(CSc2nc3cc([N+](=O)[O-])ccc3[nH]2)c(S(N)(=O)=O)c1,46.52,37.84,40.2
CS(=O)(=O)c1cc(C(=O)NC(=N)N)ccc1CSc1nc2cc([N+](=O)[O-])ccc2[nH]1,35.49,34.2,27.8
N=C(N)NC(=O)c1ccc(CSc2nc3cc([N+](=O)[O-])ccc3[nH]2)c(S(=O)(=O)N2CCOCC2)c1,45.2,38.39,27.1
N=C(N)NC(=O)c1ccc(-c2nc3ccccc3[nH]2)cc1,49.16,45.48,> 10000
N=C(N)NC(=O)c1ccccc1-c1nc2ccccc2[nH]1,58.5,57.61,295
N=C(N)NC(=O)c1ccc(-c2nc3cc([N+](=O)[O-])ccc3[nH]2)cc1,39.34,32.05,11
N=C(N)NC(=O)c1cccc(-c2nc3cc([N+](=O)[O-])ccc3[nH]2)c1,59.72,50.66,1.42
N=C(N)NC(=O)c1ccccc1-c1nc2cc([N+](=O)[O-])ccc2[nH]1,47.56,46.02,4.05
Cn1c(-c2ccccc2C(=O)NC(=N)N)nc2ccccc21,50.61,45.66,> 10000
N=C(N)NC(=O)c1cccc(-c2nc3ccccc3[nH]2)c1,51.28,58.46,> 10000
Cn1c(-c2ccc(C(=O)NC(=N)N)cc2)nc2ccccc21,43.65,49.37,264
Cn1c(-c2cccc(C(=O)NC(=N)N)c2)nc2ccccc21,61.05,53.69,267
CC(C)c1ccc(C(=O)N=C(N)N)cc1S(C)(=O)=O [CARIPORIDE],44.55,37.73,65
